Experimental data published in patent US20130245081A1, “Compositions and Methods for Treating Amyotrophic Lateral Sclerosis” (priority 2009, published 2013).
“And” between values parts separate entries of the source, which are not always exact repeats. Identical values can stand only once. Like-named read-outs stand apart in the source and are kept apart here. Marks after values point to notes of the source that are not given here.

Test system: patients with ALS
[1] = 300 mg, through the end of the study
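Note: adverse event data gathered at every clinic visit and phone contact, after first study drug dose, in a blinded trial, counts of affected subjects.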

For CCCN[C@@H]1CCc2nc(N)sc2C1 [dexpramipexole, (6R)-2-amino-4,5,6,7-tetrahydro-6-(propylamino)benzothiazole], the “TEAE: Cough” value (300 mg, through Week 28) was 5 (11%) N (%), the “TEAE: Dehydration” value (300 mg, through Week 28) was 3 (7%) N (%) and the “TEAE: Depression” value (300 mg, through Week 28) was 5 (11%) N (%). The “TEAE: Dizziness” value (300 mg, through Week 28) was 3 (7%) N (%), the “TEAE: Dysarthria” value (300 mg, through Week 28) was 5 (11%) N (%) and the “TEAE: Dysphagia” value (300 mg, through Week 28) was 4 (9%) N (%). The “TEAE: Dyspnoea” value (300 mg, through Week 28) was 6 (14%) N (%), the “TEAE: Fall” value (300 mg, through Week 28) was 11 (25%) N (%) and the “TEAE: Fatigue” value (300 mg, through Week 28) was 2 (5%)^a N (%) and 2 (5%) N (%). For the same compound, the “TEAE: Gastrointestinal Disorders” value (300 mg, through Week 28) was 25 (57%) N (%), the “TEAE: General Disorders and Administration Site Conditions” value (300 mg, through Week 28) was 12 (27%) N (%) and the “TEAE: Headache” value (300 mg, through Week 28) was 6 (14%) N (%). The “TEAE: Hyperglycaemia” value (300 mg, through Week 28) was 3 (7%) N (%), the “TEAE: Infections and Infestations” value (300 mg, through Week 28) was 17 (39%) N (%) and the “TEAE: Injury, Poisoning and Procedural Complication” value (300 mg, through Week 28) was 12 (27%) N (%). The “TEAE: Metabolism and Nutrition Disorders” value (300 mg, through Week 28) was 8 (18%) N (%), the “TEAE: Muscle contractions involuntary” value (300 mg, through Week 28) was 2 (5%)^a N (%) and 2 (5%) N (%) and the “TEAE: Muscle spasticity” value (300 mg, through Week 28) was 1 (2%) N (%). For the same compound, the “TEAE: Musculoskeletal and Connective Tissue Disorders” value (300 mg, through Week 28) was 19 (43%) N (%), the “TEAE: Musculoskeletal pain” value (300 mg, through Week 28) was 3 (7%) N (%) and the “TEAE: Nausea” value (300 mg, through Week 28) was 3 (7%) N (%). The “TEAE: Neck pain” value (300 mg, through Week 28) was 4 (9%) N (%), the “TEAE: Nervous System Disorders” value (300 mg, through Week 28) was 18 (41%) N (%) and the “TEAE: Oedema peripheral” value (300 mg, through Week 28) was 2 N (%) and 1 (2%) N (%). For the same compound, the “TEAE: Pharyngolaryngeal pain” value (300 mg, through Week 28) was 3 (7%) N (%), the “TEAE: Pneumonia” value (300 mg, through Week 28) was 1 (2%) N (%) and the “TEAE: Pruritus” value (300 mg, through Week 28) was 0 N (%). For the same compound, the “TEAE: Psychiatric Disorders” value (300 mg, through Week 28) was 14 (32%) N (%), the “TEAE: Rash” value (300 mg, through Week 28) was 3 (7%) N (%) and the “TEAE: Respiratory failure” value (300 mg, through Week 28) was 1 (2%) N (%). The “TEAE: Respiratory, Thoracic and Mediastinal Disorders” value (300 mg, through Week 28) was 18 (41%) N (%), the “TEAE: Salivary hypersecretion” value (300 mg, through Week 28) was 5 (11%) N (%) and the “TEAE: Sinusitis” value (300 mg, through Week 28) was 5 (11%) N (%). The “TEAE: Skin and Subcutaneous Tissue Disorders” value (300 mg, through Week 28) was 8 (18%) N (%), the “TEAE: Tachycardia” value (300 mg, through Week 28) was 4 (9%) N (%) and the “TEAE: Upper respiratory tract infection” value (300 mg, through Week 28) was 3 (7%) N (%). The “TEAE: Urinary tract infection” value (300 mg, through Week 28) was 4 (9%) N (%), the “TEAE: Vomiting” value (300 mg, through Week 28) was 0 N (%) and the “serious TEAE: Acute myocardial infarction” value (300 mg, through Week 28) was 0 N (%). The “serious TEAE: Atrial fibrillation” value (300 mg, through Week 28) was 1 (2%) N (%), the “serious TEAE: Blood and Lymphatic System Disorders” value (300 mg, through Week 28) was 1 (2%) N (%) and the “serious TEAE: Cardiac Disorders” value (300 mg, through Week 28) was 1 (2%) N (%). The “serious TEAE: Cardiac failure congestive” value (300 mg, through Week 28) was 0 N (%), the “serious TEAE: Cholecystitis acute” value (300 mg, through Week 28) was 1 (2%) N (%) and the “serious TEAE: Concussion” value (300 mg, through Week 28) was 1 (2%) N (%). For the same compound, the “serious TEAE: Disease progression” value (300 mg, through Week 28) was 0 N (%), the “serious TEAE: Dyspnoea” value (300 mg, through Week 28) was 0 N (%) and the “serious TEAE: Fall” value (300 mg, through Week 28) was 1 (2%) N (%). The “serious TEAE: Gastrointestinal Disorders” value (300 mg, through Week 28) was 0 N (%), the “serious TEAE: General Disorders and Administration Site Conditions” value (300 mg, through Week 28) was 0 N (%) and the “serious TEAE: Hepatobiliary Disorders” value (300 mg, through Week 28) was 1 (2%) N (%). The “serious TEAE: Ileus” value (300 mg, through Week 28) was 0 N (%), the “serious TEAE: Infections and Infestations” value (300 mg, through Week 28) was 1 (2%) N (%) and the “serious TEAE: Injury, Poisoning and Procedural Complications” value (300 mg, through Week 28) was 1 (2%) N (%). For the same compound, the “serious TEAE: Neutropenia” value (300 mg, through Week 28) was 1 (2%) N (%), the “serious TEAE: Pneumonia” value (300 mg, through Week 28) was 1 (2%) N (%) and the “serious TEAE: Pneumonia aspiration” value (300 mg, through Week 28) was 1 (2%) N (%). The “serious TEAE: Pneumonia bacterial” value (300 mg, through Week 28) was 0 N (%), the “serious TEAE: Pulmonary embolism” value (300 mg, through Week 28) was 0 N (%) and the “serious TEAE: Respiratory distress” value (300 mg, through Week 28) was 0 N (%). The “serious TEAE: Respiratory failure” value (300 mg, through Week 28) was 1 (2%) N (%), the “serious TEAE: Respiratory, Thoracic and Mediastinal Disorders” value (300 mg, through Week 28) was 2 (5%) N (%) and the “serious TEAE: Subdural haematoma” value (300 mg, through Week 28) was 1 (2%) N (%). For the same compound, the “serious TEAE: Sudden death” value (300 mg, through Week 28) was 0 N (%), the “serious TEAE: Viral infection” value (300 mg, through Week 28) was 0 N (%) and the “≧1 TEAE with an outcome of death” value (300 mg, through Week 28) was 1 N (%) and 1 (2%) N (%). The “≧1 serious TEAE (including death)” value (300 mg, through Week 28) was 5 N (%) and 5 (11%) N (%), the “≧1 serious treatment-related TEAE” value (300 mg, through Week 28) was 1 (2%) N (%) and the “≧1 severe TEAE” value (300 mg, through Week 28) was 6 (14%) N (%) and 6 N (%). For the same compound, the “Number of TEAEs” value [1] was 366, the “Number of serious TEAEs” value [1] was 17 and the “Number of serious treatment-related TEAEs” value [1] was 2. The “Number of severe TEAEs” value [1] was 23, the “Number of treatment-related TEAEs” value [1] was 61 and the “Subjects with a TEAE with action taken of study drug discontinued” value [1] was 3 N (%) and 3 (7%) N (%). The “subjects with TEAEs with an outcome of death (b230 count)” value [1] was 5 subjects, the “≧1 TEAE with an outcome of death” value [1] was 4 N (%) and 4 (9%) N (%) and the “≧1 serious TEAE (including death)” value [1] was 11 N (%) and 11 (25%) N (%). For the same compound, the “≧1 serious treatment-related TEAE” value [1] was 2 (5%) N (%), the “≧1 severe TEAE” value [1] was 13 N (%) and 13 (30%) N (%) and the “≧1 treatment-related TEAE” value [1] was 18 (41%) N (%). For the same compound, the safety and tolerability (total daily doses of 50 mg and 300 mg, ALS subjects) was “safe and well tolerated”.
